Assay results: patent US12583856B2, “Inhibitors of protein kinase A” (Blueprint Medicines Corporation, priority 2021, dated 2026)

Legend:
PRKACA = target: T1, PRKACA (Homo sapiens, UniProt P17612); assay: PRKACA assay at Km (EZ Reader 2 electrophoretic mobility shift); format: biochemical; details: 5 μM ATP (Km), 1 μM Kemptide, 90 minutes at 25 C; read-out: Enz PRKACA IC50
T1 construct: purchased Millipore 539482
Description: (§1) A Perkin Elmer electrophoretic mobility shift platform (the EZ Reader 2) was used to assess the activity of test compounds against a kinase of interest. Fluorescently labeled substrate peptide was incubated in the presence of kinase, ATP, and the test compound, so that a portion of the peptide was phosphorylated by the enzyme. At the end of the reaction, the mix of phosphorylated (product) and non-phosphorylated (substrate) peptide containing solutions was passed through the microfluidic system of the Perkin Elmer EZ Reader 2 under an applied potential difference. The presence of the phosphate group on the product peptide provided a difference in mass and charge between those of the substrate peptide, resulting in a separation of the substrate and product pools in the sample. As the stopped solutions passed under the instrument's LED light the phosphorylated and un-phosphorylated fluorophore bound peptides were detected and resolved as separate peaks. The ratio between these peaks therefore reflected the test compound's impact on the kinase at that concentration in that well under those conditions.
PRKACA assay at Km: In each well of a 384-well plate, 0.007 ng/ul (0.18 nM) of PRKACA enzyme (Millipore: 539482) was incubated in a total of 12.5 μl of buffer (100 mM HEPES pH 7.5, 0.015% Brij 35, 10 mM MgCl2, 1 mM DTT) with 1 μM Kemptide peptide substrate (5-FAM-LRRASLG) (Anaspec 29933) and 5 μM ATP at 25 C for 90 minutes in the presence or absence of a dosed concentration series of test compounds (1% DMSO final concentration). The reaction was stopped by the addition of 80 μl of Stop buffer (100 mM HEPES pH 7.5, 0.015% Brij 35, 35 mM EDTA and 0.2% of Coating Reagent 3 (Perkin Elmer)). The plate was then read on the EZ Reader 2 (protocol settings: −2.0 psi, upstream voltage −700, downstream voltage −2700, post sample sip 60 seconds). Data was normalized to 0% and 100% inhibition controls and the IC50 calculated using a 4-parameter fit using GraphPad Prism.

[1] = system: PKA (phosphorylation of VASP on Serine 157); assay: Cellular potency assay: P-VASP(157) HTRF in Forskolin-stimulated Huh7 cells; format: cell-based; details: Homo sapiens, Huh-7, 4 hours compound, 5 μM Forskolin 30 minutes, read-out: Phos VASP(S157) IC50
Text: PKA directly phosphorylate VASP on Serine 157. Phosphorylation of VASP on Serine 157. P-VASP(157) was therefore used as a readout of PKA cellular activity. P-VASP(157) was detected with a HTRF assay, which is based on a TR-FRET sandwich immunoassay-based format comprising two specific anti-VASP antibodies following the manufactors protocol (Cisbio, Catalog No. 63ADK066PEH). PKA was activated in the assay by the addition of Forskolin (Sigma-Aldrich, Catalog No. F3917).
Dose response in Forskolin-stimulated human Huh7 cells was measured as follows. Briefly, Huh7 cells were plated at a density of 2×10^4 cells per well in a 384-well opti-well cell culture plate in 15 μl of serum- and phenol-free Dulbecco's Modified Eagle Medium (DMEM, Gibco Catalog No. 21063-029), and incubated for over night at 37° C., 5% CO2. The next day, 3 μl of a dosed concentration series of test compound (0.24%) DMSO final concentration) was added to the wells, and the cells were incubated for an additional 4 hours at 37° C., 5% CO2. 2 μl of Forskolin was added at a final concentration of 5 μM and the plates were incubated for 30 minutes at 37° C., 5% CO2. 5 μl of lysis buffer containing 1% HALT protease cocktail inhibitors (ThermoFisher, Catalog No. 78430), was added to the cells and the mixture was incubated under gentle shaking for 30 min at room temperature. 10 μl of this lysate was transferred to a 384-well proxi plate and 2.5 μL of the premixed antibody solution was added. An antibody solution was prepared by combining phopho-VASP cryptate antibody and phospho-VASP d2 antibody, at twenty-fold dilution into a buffer solution following the manufactors' protocol. The lysate and antibody mixture was incubated for either 3 h at room temperature or overnight at 4° C. The fluorescence emission at two different wavelengths (665 nm and 620 nm) was read on an EnVision instrument.

PRKACA-DNAJB1 = target: T2, PRKACA-DNAJB1 (Homo sapiens, UniProt P17612); assay: PRKACA-DNAJB1 enzyme assay (EZ Reader 2 electrophoretic mobility shift); format: biochemical; details: read-out: Enz PRKACA-DNAJB1 IC50
T2 construct: DNAJB1 (fusion partner, P25685); the other entry of the earlier key: DNAJB1 (P25685, DnaJ homolog subfamily B member 1)
Description: as §1

[2] = system: FL-HCC (LI5132) PDX tumors; assay: Efficacy study in FL-HCC (LI5132) patient-derived xenograft (PDX) model; format: in vivo; details: oral delivery; compound 144: 30 mg/kg PO QDX34; FIG. 3
Description: Efficacy: To establish the PDX model, 72 mice were inoculated with patient tumor cells to yield at least 36 mice with tumors of the required size. 18 of these mice were selected for the study.

CO[C@@H]1CCN([C@@H]2Cc3cccc(Cl)c3[C@H]2NC(=O)c2ccc(-c3ccnc4[nH]cc(C)c34)nc2)C1 [Compound 188]
IC50 (PRKACA): ≤ 1 nM | IC50 [1]: 0.01 to 100 nM | IC50 (PRKACA-DNAJB1): 1.01 to 5 nM

O=C(N[C@@H]1c2ccccc2C[C@H]1O)c1ccc(-c2ccnc3[nH]ccc23)cc1 [Compound 102]
IC50 (PRKACA): ≤ 1 nM | IC50 [1]: 0.01 to 100 nM | IC50 (PRKACA-DNAJB1): ≤ 1 nM

O=C(N[C@@H]1c2ccccc2C[C@H]1N1CCCC1)c1ccc(-c2ccnc3[nH]ccc23)nc1 [Compound 144, N-[(1R,2R)-2-(Pyrrolidin-1-yl)-2,3-dihydro-1H-inden-1-yl]-6-{1H-pyrrolo[2,3-b]pyridin-4-yl}pyridine-3-carboxamide]
FLC tumor growth inhibition [2]: significant FLC tumor growth inhibition | tolerability of the dose [2]: tolerated | IC50 (PRKACA): ≤ 1 nM | IC50 [1]: < 50 nM

Cc1c[nH]c2nccc(-c3ccc(C(=O)N[C@H]4CCOc5cccc(F)c54)cn3)c12 [Compound 121, (S)—N-(5-Fluorochroman-4-yl)-6-(3-methyl-1H-pyrrolo[2,3-b]pyridin-4-yl)nicotinamide]
IC50 (PRKACA): ≤ 1 nM | IC50 [1]: 0.01 to 100 nM | IC50 (PRKACA-DNAJB1): 1.01 to 5 nM

O=C(N[C@@H]1c2c(Cl)cccc2OC[C@@H]1O)c1ccc(-c2ccnc3[nH]ccc23)nc1 [Compound 139]
IC50 (PRKACA): ≤ 1 nM | IC50 [1]: 0.01 to 100 nM | IC50 (PRKACA-DNAJB1): 1.01 to 5 nM

O=C(N[C@@H]1c2c(F)cccc2C[C@H]1N1CCCC1)c1ccc(-c2ccnc3[nH]cc(F)c23)nc1 [Compound 169]
IC50 (PRKACA): ≤ 1 nM | IC50 [1]: < 50 nM | IC50 (PRKACA-DNAJB1): ≤ 1 nM

Cc1c[nH]c2nccc(-c3ccc(C(=O)N[C@@H]4c5ccccc5C[C@H]4O)cc3)c12 [Compound 107, N-[(1R,2R)-2-Hydroxy-2,3-dihydro-1H-inden-1-yl]-4-{3-methyl-1H-pyrrolo[2,3-b]pyridin-4-yl}benzamide]
IC50 (PRKACA): ≤ 1 nM | IC50 [1]: < 50 nM | IC50 (PRKACA-DNAJB1): ≤ 1 nM

O=C(N[C@@H]1c2c(Cl)cccc2C[C@H]1N1C[C@@H](F)[C@@H](O)C1)c1ccc(-c2ccnc3[nH]ccc23)nc1 [Compound 186]
IC50 (PRKACA): ≤ 1 nM | IC50 [1]: < 50 nM | IC50 (PRKACA-DNAJB1): 1.01 to 5 nM

C[C@]1(O)CCN([C@@H]2Cc3cccc(Cl)c3[C@H]2NC(=O)c2ccc(-c3ccnc4[nH]ccc34)nc2)C1 [Compound 180]
IC50 (PRKACA): ≤ 1 nM | IC50 [1]: < 50 nM | IC50 (PRKACA-DNAJB1): ≤ 1 nM

CN(C)[C@@H]1Cc2ccccc2[C@H]1NC(=O)c1ccc(-c2ccnc3[nH]ccc23)cc1 [Compound 120, N-[(1R,2R)-2-(Dimethylamino)-2,3-dihydro-1H-inden-1-yl]-4-{1H-pyrrolo[2,3-b]pyridin-4-yl}benzamide]
IC50 (PRKACA): ≤ 1 nM | IC50 [1]: < 50 nM | IC50 (PRKACA-DNAJB1): ≤ 1 nM

O=C(N[C@H]1CCOc2cccc(F)c21)c1ccc(-c2ccnc3[nH]cc(F)c23)cc1 [Compound 128]
IC50 (PRKACA): ≤ 1 nM | IC50 [1]: < 50 nM | IC50 (PRKACA-DNAJB1): ≤ 1 nM

O=C(N[C@H]1CCOc2cc(F)ccc21)c1ccc(-c2ccnc3[nH]ccc23)cc1 [Compound 113]
IC50 (PRKACA): ≤ 1 nM | IC50 [1]: 0.01 to 100 nM | IC50 (PRKACA-DNAJB1): 1.01 to 5 nM

O=C(N[C@@H]1c2c(F)cc(C(F)F)cc2C[C@@H]1O)c1ccc(-c2ccnc3[nH]ccc23)nc1 [Compound 154]
IC50 (PRKACA): ≤ 1 nM | IC50 [1]: < 50 nM | IC50 (PRKACA-DNAJB1): ≤ 1 nM

O=C(N[C@@H]1c2c(ccc(F)c2F)C[C@@H]1O)c1ccc(-c2ccnc3[nH]cc(F)c23)nc1 [Compound 146]
IC50 (PRKACA): ≤ 1 nM | IC50 [1]: 0.01 to 100 nM | IC50 (PRKACA-DNAJB1): ≤ 1 nM

O=C(N[C@@H]1c2c(F)cccc2OC[C@@H]1O)c1ccc(-c2ccnc3[nH]ccc23)cn1 [Compound 127]
IC50 (PRKACA): ≤ 1 nM | IC50 [1]: < 50 nM | IC50 (PRKACA-DNAJB1): 1.01 to 5 nM

O=C(N[C@@H]1c2c(F)cc(C(F)F)cc2C[C@H]1N1CC[C@H](F)C1)c1ccc(-c2ccnc3[nH]ccc23)nc1 [Compound 190]
IC50 (PRKACA): ≤ 1 nM | IC50 [1]: < 50 nM | IC50 (PRKACA-DNAJB1): ≤ 1 nM

N[C@@H]1Cc2ccccc2[C@H]1NC(=O)c1ccc(-c2ccnc3[nH]ccc23)cc1 [Compound 100, N-[(1R,2R)-2-Amino-2,3-dihydro-1H-inden-1-yl]-4-{1H-pyrrolo[2,3-b]pyridin-4-yl}benzamide]
IC50 (PRKACA): ≤ 1 nM | IC50 [1]: < 50 nM | IC50 (PRKACA-DNAJB1): ≤ 1 nM

O=C(N[C@H]1CCOc2ccc(F)cc21)c1ccc(-c2ccnc3[nH]ccc23)cc1 [Compound 114]
IC50 (PRKACA): ≤ 1 nM | IC50 [1]: < 50 nM | IC50 (PRKACA-DNAJB1): ≤ 1 nM

Cc1c[nH]c2nccc(-c3ccc(C(=O)N[C@H]4C[C@@H](C)Oc5ccc(F)c(F)c54)cn3)c12 [Compound 148, N-[(2R,4S)-5,6-Difluoro-2-methyl-3,4-dihydro-2H-1-benzopyran-4-yl]-6-{3-methyl-1H-pyrrolo[2,3-b]pyridin-4-yl}pyridine-3-carboxamide]
IC50 (PRKACA): ≤ 1 nM | IC50 [1]: 0.01 to 100 nM | IC50 (PRKACA-DNAJB1): ≤ 1 nM

O=C(N[C@@H]1c2ccccc2OC[C@@H]1O)c1ccc(-c2ccnc3[nH]cc(F)c23)cc1 [Compound 123]
IC50 (PRKACA): ≤ 1 nM | IC50 [1]: < 50 nM | IC50 (PRKACA-DNAJB1): ≤ 1 nM

O=C(N[C@@H]1c2ccccc2C[C@@H]1O)c1ccc(-c2ccnc3[nH]cc(F)c23)cc1 [Compound 112, 4-(3-Fluoro-1H-pyrrolo[2,3-b]pyridin-4-yl)-N-((1R,2S)-2-hydroxy-2,3-dihydro-1H-inden-1-yl)benzamide]
IC50 (PRKACA): ≤ 1 nM | IC50 [1]: 0.01 to 100 nM | IC50 (PRKACA-DNAJB1): ≤ 1 nM

Cc1c[nH]c2nccc(-c3ccc(C(=O)N[C@@H]4c5c(F)cc(C(F)F)cc5OCC4O)cn3)c12 (single isomer, unassigned) [Compound 171]
IC50 (PRKACA): ≤ 1 nM | IC50 [1]: < 50 nM | IC50 (PRKACA-DNAJB1): ≤ 1 nM

O=C(N[C@@H]1c2c(F)cccc2C[C@H]1N1CCCC1)c1ccc(-c2ccnc3[nH]ccc23)nc1 [Compound 157, N-[(1R,2R)-7-Fluoro-2-(pyrrolidin-1-yl)-2,3-dihydro-1H-inden-1-yl]-6-{1H-pyrrolo[2,3-b]pyridin-4-yl}pyridine-3-carboxamide]
IC50 (PRKACA): ≤ 1 nM | IC50 [1]: < 50 nM | IC50 (PRKACA-DNAJB1): ≤ 1 nM

O=C(N[C@H]1CCOc2ccccc21)c1ccc(-c2ccnc3[nH]cc(F)c23)cc1 [Compound 115]
IC50 (PRKACA): ≤ 1 nM | IC50 [1]: < 50 nM | IC50 (PRKACA-DNAJB1): ≤ 1 nM

O=C(N[C@@H]1c2c(F)cccc2C[C@H]1N1CC[C@@H](O)C1)c1ccc(-c2ccnc3[nH]ccc23)nc1 [Compound 167]
IC50 (PRKACA): ≤ 1 nM | IC50 [1]: 0.01 to 100 nM | IC50 (PRKACA-DNAJB1): ≤ 1 nM

CN(C)C(=O)[C@@H]1CCCN1[C@@H]1Cc2cccc(Cl)c2[C@H]1NC(=O)c1ccc(-c2ccnc3[nH]ccc23)nc1 [Compound 191]
IC50 (PRKACA): ≤ 1 nM | IC50 [1]: < 50 nM | IC50 (PRKACA-DNAJB1): ≤ 1 nM

C[C@@H]1C[C@H](NC(=O)c2ccc(-c3ccnc4[nH]ccc34)cc2)c2ccccc2O1 [Compound 109]
IC50 (PRKACA): ≤ 1 nM | IC50 [1]: < 50 nM | IC50 (PRKACA-DNAJB1): ≤ 1 nM
